Results on one compound are retold here after patent US9238647B2, “P2X3 receptor antagonists for treatment of pain” (Merck Sharp & Dohme Corp., priority 2009, dated 2016).

This assay addresses T1, human P2X3 (Homo sapiens, UniProt P56373).
T1 construct: expressed in transfected cells
T1 sequence (P56373 1-397): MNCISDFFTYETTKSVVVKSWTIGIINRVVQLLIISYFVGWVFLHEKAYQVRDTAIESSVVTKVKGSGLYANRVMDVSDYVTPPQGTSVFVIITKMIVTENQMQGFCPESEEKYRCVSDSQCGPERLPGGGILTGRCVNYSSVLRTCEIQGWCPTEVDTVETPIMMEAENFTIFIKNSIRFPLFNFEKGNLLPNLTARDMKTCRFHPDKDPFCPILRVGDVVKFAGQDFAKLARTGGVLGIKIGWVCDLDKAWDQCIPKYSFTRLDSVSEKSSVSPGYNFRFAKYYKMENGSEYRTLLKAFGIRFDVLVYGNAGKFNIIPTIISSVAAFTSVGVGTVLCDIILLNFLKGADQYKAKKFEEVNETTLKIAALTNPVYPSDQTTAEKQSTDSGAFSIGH
The assay is described as follows: Intracellular Calcium Measurement to Assess Antagonist Affinity (FLIPR, Fluo-4, α,β-meATP agonist). The assay is classed as cell-based. To be noted: cells expressing human P2X3; agonist α,β-meATP at EC50; antagonist added 10 min before agonist. The source says:
Generation of a Human P2X3 and P2X2/3 Stable Cell Line—Human P2X3 receptor cDNA (Accession number NM_002559) was subcloned as a 5′XhoI and 3′HindIII fragment into the expression vector pcDNA5/FRT (Invitrogen). Human P2X2 receptor cDNA (Accession number NM_174873) was subcloned as a 5′EcoRI and 3′NotI fragment into the expression vector pIRESneo2 (BD Biosciences Clontech). The human P2X3 expression construct was transfected using Lipofectamine 2000 (Invitrogen) into Flp-in-293 cells (Invitrogen) according to the manufacturer's directions. Cells positive for flp-mediated recombination of […] P2X3 were selected using 150 μg/ml hygromycin. […]
Intracellular Calcium Measurement to Assess Antagonist Affinity—A fluorescent imaging plate reader (FLIPR; Molecular Devices) was used to monitor intracellular calcium levels using the calcium-chelating dye Fluo-4 (Molecular Probes). The excitation and emission wavelengths used to monitor fluorescence were 488 nm and 530 nm, respectively. […] During this period fluorescence data is collected at 3 sec intervals followed by 10 sec intervals. […] Following agonist addition fluorescence was measured at 5 sec intervals and analyzed based on the increase in peak relative fluorescence units (RFU) compared to the basal fluorescence. […]

In the case of `Cc1ccc(-c2cc(C(=O)N[C@H](C)c3ccc(C(F)(F)F)nc3)cc3nncn23)cc1` [Example 4.3, 5-(4-Methylphenyl)-N-{(1R)-1-[6-(trifluoromethyl)pyridin-3-yl]ethyl}[1,2,4]triazolo[4,3-a]pyridine-7-carboxamide], the IC50 came to 200 nM.

Usually IC50 stands for the midpoint of a concentration-inhibition curve.
